Data as given in patent US8735423B2, “Bicyclic compounds as α4β2 nicotinic acetylcholine receptor ligands” (priority 2009, dated 2014).

Assays:
Male Sprague Dawley rats = assay: DRL-72s model of animal depression; assay type: in vivo; conditions: rat
Protocol: The antidepressant properties of compounds of this invention were evaluated using a model of animal depression: the DRL-72s model. Male Sprague Dawley rats were used as experimental animals. Rats are trained to lever press for a 4″ access to 0.025 mL of water for each correct response during daily 60 minute sessions. All testing takes place on weekdays only. At the beginning of each session, the house light is illuminated and remains lit until the session ends. No other stimuli are presented during testing. After successful lever press training, rats are then required to respond under a DRL-24 second schedule, where only lever presses that are separated by 24 seconds are reinforced. Upon stable responding on a DRL-24 second schedule (5-10 sessions), rats are trained on a DRL-72 second schedule until responding stabilizes at approximately 15% efficiency (approx 25-35 sessions). Specifically, rats receive a reinforcer for each response that is emitted at least 72 seconds after the previous response (IRT). […] Efficiency is recorded as number of reinforced responses÷total number of responses. After stable baseline responding is achieved, defined as responding for 4 consecutive sessions with no more than 10% variability, animals begin drug testing. Animals receive drug no more than 1× per week.

Male Wistar rats = assay: Acute Food Intake Study (animal model of hyperphagia); assay type: in vivo; conditions: rat, oral
Protocol: The appetite suppressing properties of compounds of this invention were studied using an animal model of hyperphagia.
Male Wistar rats (200-210 grams) obtained from Raj Biotech, India were used as experimental animals. The experiment consisted of 6 days. The rats were adapted to the 18 hour fasting and 6 hour feeding pattern. The animals were housed in a group of three in the cages provided with the fasting grills and were fasted for 18 hours. After 18 hour fasting the rats were separated and placed individually in a cage. Weighed amount of feed was provided to rats for 6 hour and the feed intake at 1, 2, 4 and 6 hours was recorded. Again the rats were regrouped and fasted for 18 hour. The above procedure was followed for 5 days. The average cumulative food intake by the rats on the last 3 days was calculated. Animals were randomised on the basis of their last three days food intake.
One group of 8 rats received vehicle (2 mL/Kg) orally and another set of animals received compound of the formula (I) orally. Then the rats were given access to food and the food intake at 1, 2, 4 and 6 hours was recorded. The food intake by the rats treated with test compound was compared with the vehicle treated group by using students ‘t’ test.
Following compound shown positive effects indicating the suppression of food intake i.e. hypophagia like effects.

High Fat Fed Rats = assay: Effect of Test Compounds on Body Weight Gain in High Fat Fed Rats; assay type: in vivo, rat; conditions: high fat diet fed Sprague Dawley rats, oral for 14 days
Source text: Effect of Test Compounds on Body Weight Gain in High Fat Fed Rats
The body weight gain suppressing properties of compounds of this invention were studied using a animal model of obesity.
Male Sprague Dawley rats (150-160 grams) obtained from Reliance Life Sciences, India were used as experimental animals. Rats were fed with control diet (normal pellet diet) and lard based high fat diet (45% kcal diet) for 7-8 weeks. High fat diet fed animals was randomized according to their body weights. The animals were housed in a group of 3-4 per cage. One group of 10 rats received vehicle (2 mL/Kg) orally and another set of animals received compound of the formula (I) orally for 14 days. Body weight of the animals was recorded for first three consecutive days then it was recorded twice weekly. Weighed amount of food was given to the animals and food intake was recorded every 24 hour for the entire study period.
Following compound shown positive effects indicating the decrease in the body weight gain.

[1] = Rodent Pharmacokinetic Study; conditions: Wistar, in vivo, Wister rat male
Protocol: Rodent Pharmacokinetic Study
Male wistar rats (230-280 grams) obtained from NIN (National Institute of Nutrition, Hyderabad, India) were used as an experimental animal. Three to five animals were housed in each cage. Animals were kept fasted over night and maintained on a 12 hours light/dark cycle. […]
At each time point blood was collected by jugular vein. Plasma was stored frozen at −20° C. until analysis. The concentrations of the NCE compound in plasma were determined using LC-MS/MS method. Schedule time points: Pre dose 0.25, 0.5, 1, 1.5, 2, 3, 4, 6, 8, 10, 12 and 24 hours after dosing (n=3). The NCE compounds were quantified in plasma by validated LC-MS/MS method using solid phase extraction technique. NCE compounds were quantified in the calibration range of 1-2000 ng/mL in plasma. Study samples were analyzed using calibration samples in the batch and quality control samples spread across the batch. Pharmacokinetic parameters Cmax, Tmax, AUCs, T112 and Bioavailability were calculated by non-compartmental model using software WinNonlin version 5.0.1.

Male Wister rats = assay: Reversal of Formalin Induced Nociception; assay type: in vivo; conditions: rat, p.o., formalin 5% v/v subplantar
Protocol: Reversal of Formalin Induced Nociception
The anti-nociceptive properties of compounds of this invention were evaluated using a model of pain: the Formalin Induced Nociception model. Male Wister rats (230-280 grams) obtained from N. I. N. (National Institute of Nutrition, Hyderabad, India) was used as experimental animals.
Rats were habituated for 20 minutes in the arena before the experiment was started. Duration of licks, bites and flinches were noted from 0-10 minutes and 20-35 minutes after administration of formalin, subplantar into the right hind paw at concentrations of 5% v/v. 50 μL of water for injection was injected into the right hind paw of the rats of the sham group. Compounds of this invention were administered orally prior to formalin administration.

## Cl.c1cncc(OCC2CC3CC3N2)c1 (stereo not shown) [Example 1, 3-(Pyridin-3-yloxymethyl)-2-azabicyclo[3.1.0]hexane hydrochloride]
Male Sprague Dawley rats
  Dose mg/kg, p.o. (DRL-72s): ≦10 mg/kg, p.o.
Male Wistar rats
  Inference: Active
Male Wistar rats; 1 Hour
  % Suppression of food intake compared to vehicle: 32.25%
Male Wistar rats; 2 Hour
  % Suppression of food intake compared to vehicle: 25.40%
Male Wistar rats; 4 Hour
  % Suppression of food intake compared to vehicle: 23.08%
Male Wistar rats; 6 Hour
  % Suppression of food intake compared to vehicle: 15.37%
High Fat Fed Rats
  % Reduction in body weight gain compared to vehicle (Day 14): 3.6%
  Inference: Active
[1]; iv, I.V, 5 mg/kg
  AUC(0-t): 4050 ± 679 ng·h/mL
  Cmax: 3180 ± 38 ng/mL
  Tmax: 4.8 min
  half-life: 116 ± 37.2 min
[1]; po, P.O 15 mg/kg vs I.V 5 mg/kg
  bioavailability: 92 ± 16%
[1]; po, P.O, 15 mg/kg
  AUC(0-t): 10900 ± 646 ng·h/mL
  Cmax: 7610 ± 1660 ng/mL
  Tmax: 15 min
  half-life: 251 ± 91.8 min
Male Wister rats
  Dose (reversal of formalin induced nociception): ≦10 mg/kg, p.o.

## Cl.Cl.Clc1cncc(OCC2CC3CC3N2)c1 (stereo not shown) [Example 7, 3-(5-Chloropyridin-3-yloxymethyl)-2-azabicyclo[3.1.0]hexane dihydrochloride]
[1]; iv, I.V, 5 mg/kg
  AUC(0-t): 2390 ± 196 ng·h/mL
  Cmax: 2340 ± 388 ng/mL
  Tmax: 4.8 min
  half-life: 51.6 ± 1.8 min
[1]; po, P.O 5 mg/kg vs I.V 5 mg/kg
  bioavailability: 50 ± 13%
[1]; po, P.O, 5 mg/kg
  AUC(0-t): 1190 ± 201 ng·h/mL
  Cmax: 949 ± 200 ng/mL
  Tmax: 15 min
  half-life: 64.2 ± 2.4 min
Male Wister rats
  Dose (reversal of formalin induced nociception): ≦30 mg/kg, p.o.
